# Test results: ChEMBL document CHEMBL2010668 (Bioorg Med Chem Lett, 2012)
# Legend:
# Tyrosinase = molecular target: T1, Tyrosinase (Agaricus bisporus, UniProt O42713); test: Inhibition of mushroom tyrosinase
# T1 sequence (O42713 whole entry): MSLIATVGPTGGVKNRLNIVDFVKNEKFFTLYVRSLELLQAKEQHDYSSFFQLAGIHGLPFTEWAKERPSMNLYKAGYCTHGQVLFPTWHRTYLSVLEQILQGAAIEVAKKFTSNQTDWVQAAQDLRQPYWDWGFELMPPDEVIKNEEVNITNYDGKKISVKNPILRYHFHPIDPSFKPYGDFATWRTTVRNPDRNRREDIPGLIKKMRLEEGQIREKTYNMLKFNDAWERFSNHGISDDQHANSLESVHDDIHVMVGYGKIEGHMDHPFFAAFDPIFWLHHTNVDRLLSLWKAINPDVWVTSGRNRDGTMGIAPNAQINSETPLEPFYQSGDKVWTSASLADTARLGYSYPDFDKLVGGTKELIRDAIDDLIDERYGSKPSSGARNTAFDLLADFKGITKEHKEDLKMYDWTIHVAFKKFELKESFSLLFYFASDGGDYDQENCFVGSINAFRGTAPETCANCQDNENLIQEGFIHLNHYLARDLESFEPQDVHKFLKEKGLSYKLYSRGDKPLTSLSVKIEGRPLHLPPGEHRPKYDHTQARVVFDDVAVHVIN
# [1] = Cytotoxicity against mouse Melan-a cells assessed as cell survival at 80 uM; type: cell-based; conditions: read-out: Survival
# [2] = Cytotoxicity against mouse Melan-a cells at 46.64 uM; type: cell-based
# cells = conditions: Mus musculus, Melan-a
# Description: Depigmenting activity in mouse Melan-a cells assessed as melanin production
# [3] = Cytotoxicity against mouse Melan-a cells assessed as cell survival at 50 uM; type: cell-based; conditions: read-out: Survival
# [4] = Cytotoxicity against mouse Melan-a cells assessed as cell survival at 100 uM; type: cell-based; conditions: read-out: Survival
SMILES,IC50 (Tyrosinase) [µM],viability at 80 µM [1] [%],Activity [2],IC50 (cells) [µM],viability at 50 µM [3] [%],viability at 100 µM [4] [%]
O=C(/C=C/c1ccc2c(c1)OCO2)Oc1coc(CO)cc1=O,> 200,98.9,Non-toxic,46.6,–,–
O=C(/C=C/c1ccc2c(c1)OCO2)OCc1cc(=O)c(OCc2cc(=O)c(O)co2)co1,> 100,–,–,23.5,95.9,–
O=C(/C=C/c1ccc2c(c1)OCO2)OCc1cc(=O)c(O)co1,1.53,–,–,> 100,–,97.1
O=C(/C=C/c1ccc2c(c1)OCO2)OC(=O)/C=C/c1ccc2c(c1)OCO2,> 100,–,–,> 100,–,97.1
